The target of one test is human EBP (Homo sapiens (Human), UniProt Q15125). As to the kind of experiment: Competition binding assay (SPA, [3H]-Ifenprodil) to determine compound affinity to EBP. The conditions noted are these: [3H]-Ifenprodil 10 nM, HEK293 membrane overexpressing human EBP, Ki=IC50/(1+[L]/Kd); read-out: hEBP SPA Ki. As for the experimental part: Membrane preparation: To examine compound binding affinity to EBP, human EBP was overexpressed in human embryonic kidney 293 cells. Cell pellet was lysed in 10 times weight binding buffer (50 mM Tris, 5 mM MgCl2, 0.1 mM EDTA, lx protease inhibitor cocktail, pH 7.5) on ice by using a dounce homogenizer. The solution was centrifuged at 25,000 g for 50 min at 4° C. The membrane pellet was re-suspended in binding buffer and run through a 25 5/8 gauge needle. After checking the concentration by Bradford assay, the whole cell membrane solution was adjusted to 20 mg/mL and stored at −80° C.
human EBP, sequence (Q15125 whole entry): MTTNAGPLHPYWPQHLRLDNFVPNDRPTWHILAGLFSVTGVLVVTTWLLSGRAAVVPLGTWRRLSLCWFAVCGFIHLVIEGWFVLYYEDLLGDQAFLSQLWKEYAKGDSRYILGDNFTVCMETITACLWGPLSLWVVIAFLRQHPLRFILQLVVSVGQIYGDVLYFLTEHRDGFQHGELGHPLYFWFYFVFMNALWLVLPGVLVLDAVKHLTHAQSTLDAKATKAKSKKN
This binding solution was centrifuged at 400 g for 5 minutes to collect the bead/membrane mixture. After re-suspending the pellet in binding buffer at the same calculated volume with 0.01% BSA (Sigma A1933), the bead/membrane mixture was added in 384-well low-binding surface plate (PerkinElmer Cat #6057480) at 25 μl/well. Radioligand at different concentrations with and without the non-radio-labeled same ligand 5 uM (for nonspecific and total signal, respectively) was added to bring final volume to 50 µl/well with DMSO concentration at 0.1%. At equilibrium (3 hours after ligand addition), radiometric signal CPM was counted by using a Microbeta2 microplate counter (Perkinelmer).
Competition binding assay to determine compound affinity: The same conditions of the radioligand Kd study were used for compound single dose percentage inhibition and equilibrium dissociation constant Ki examinations, except 50 nL compound DMSO stock was pre-added in 384-well low-binding surface plate (PerkinElmer Cat #6057480) by Echo 550 (Labcyte) to reach the final concentration for single dose test at 1 uM, and dose response test from 0.06 nM to 5 uM (8 dose, 5 times dilution). A pre-incubated bead/membrane mixture was added in compound plate at 0.3 mg beads and […] membrane per well. […] At equilibrium (3 hours after ligand addition), radiometric signal was counted as described above. The percentage inhibition of compound at each testing concentration was calculated by normalizing each condition's CPM readout to full block (5 uM non-radiolabeled ligand) and non-block (DMSO) control conditions. Compound binding inhibition IC50 was determined by nonlinear regression fitting of percentage inhibition plot against compound concentration. Compound Ki was calculated from the equation Ki=IC50/(1+[L]/Kd), which [L] was radioligand concentration used in assay. All tests had N bigger or equal to 2.

Test [1] deals with EBP (zymostenol accumulation in EpiSC-derived OPCs). Kind of test: GC/MS-based sterol profiling, zymostenol accumulation in OPCs. It counts as cell-based, mouse. The conditions noted are these: EpiSC-derived OPCs, 24 hr treatment, 8 doses from 0.15 nM to 333 nM, read-out: Zymostenol GCMS EC50. The gist of the method: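 EpiSC-derived OPCs (100,000/well) were treated 24 h in N2B27 without growth factors. Sterols were TMS-derivatized and analysed by GC/MS full-scan EI, quantified against cholesterol-d7. Zymostenol was normalized to the level after 24 h with 100 nM positive control reference.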

The test system of a further test is EpiSC-derived OPCs. As to the kind of experiment: In vitro phenotypic screening of OPCs (MBP staining, high-content imaging). It counts as cell-based, mouse. Conditions: percentage of MBP+ oligodendrocytes, 3 days, 0.5 nM to 1000 nM, read-out: OPC EC50. The gist of the method:
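EpiSC-derived mouse OPCs seeded at 150,000/cm^2 on laminin in N2B27 without growth factors, treated 3 days at 37° C. with compound (8 points, 1000 nM to 0.5 nM). Fixed cells stained for MBP and DAPI and imaged; percentage of MBP+ oligodendrocytes fitted by Hill equation for EC50.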

Like-named read-outs stand apart in the source and are kept apart here.

As a reminder, the Ki is the equilibrium dissociation constant of an inhibitor or competing ligand from its target. As a reminder, the EC50 is the concentration at which the effect is half-maximal. Regarding `Cn1nc(C(F)(F)F)cc1[C@H]1CC[C@@H](N2CC[C@]3(CCS(=O)(=O)C3)C2)CC1` (single isomer, unassigned) [38A*], the Ki on human EBP turned out to be 0.027 µM. The concentration giving a half-maximal response (EC50) was 0.049 µM in test [1] (Mus musculus, 24 h) and 0.2 µM with EpiSC-derived OPCs (Mus musculus, 72 h).

As to `Cn1nc(C(F)(F)F)cc1[C@H]1CC[C@@H](N2CC[C@@]3(CCS(=O)(=O)C3)C2)CC1` (single isomer, unassigned) [38B*], the inhibition constant (Ki) at human EBP was found to be 0.024 µM. For the same compound, the concentration giving a half-maximal response (EC50) in test [1] (Mus musculus, 24 h) came out at 0.06 µM; in the test on EpiSC-derived OPCs (Mus musculus, 72 h), 0.4 µM.

In the case of `Cn1nc(C(F)(F)F)cc1[C@H]1CC[C@H](N2CC[C@]3(CCS(=O)(=O)C3)C2)CC1` (single isomer, unassigned) [38C*], the inhibition constant Ki on human EBP was found to be 0.029 µM. For the same compound, the results for the 50% effective concentration (EC50) (in test [1]; in the test with EpiSC-derived OPCs) were 0.02 µM and 0.05 µM, respectively.

Consider `Cn1nc(C(F)(F)F)cc1[C@H]1CC[C@H](N2CC[C@@]3(CCS(=O)(=O)C3)C2)CC1` (single isomer, unassigned) [38D*], for which the inhibition constant Ki on human EBP amounted to 0.027 µM. The EC50 in test [1] amounted to 0.04 µM; in the test with EpiSC-derived OPCs, 0.2 µM.

Take `O=S1(=O)CC2(CCN([C@H]3CC[C@@H](c4ccc(C(F)(F)F)nc4)C3)C2)C1` (single isomer, unassigned) [Compound 11A, (Cis)-6-(3-(6-(Trifluoromethyl)pyridin-3-yl)cyclopentyl)-2-thia-6-azaspiro[3.4]octane 2,2-dioxide]: the Ki at human EBP was determined as 0.054 µM. Moreover, the concentration for a half-maximal effect (EC50) in test [1] (Mus musculus, 24 h) came out at 0.03 µM; with EpiSC-derived OPCs (Mus musculus, 72 h), 0.16 µM.

Turning to `O=S1(=O)CC2(CCN([C@@H]3CC[C@@H](c4ccc(C(F)(F)F)nc4)C3)C2)C1` (single isomer, unassigned) [Compound 11B, (Trans)-6-(3-(6-(Trifluoromethyl)pyridin-3-yl)cyclopentyl)-2-thia-6-azaspiro[3.4]octane 2,2-dioxide], the inhibition constant Ki on human EBP was determined as 0.042 µM. For the same compound, the EC50 was determined as 0.0073 µM in test [1] (Mus musculus, 24 h) and 0.035 µM in the test on EpiSC-derived OPCs (Mus musculus, 72 h).

In the case of `O=S1(=O)CC2(CCN([C@H]3CO[C@@H](c4ccc(C(F)(F)F)cc4)C3)C2)C1` (stereo in doubt) [19A*, 6-((3R,5R)-5-(4-(Trifluoromethyl)phenyl)tetrahydrofuran-3-yl)-2-thia-6-azaspiro[3.4]octane 2,2-dioxide], the inhibition constant Ki on human EBP was determined as 0.027 µM. The half-maximal effective concentration (EC50) was 0.023 µM in test [1] (Mus musculus, 24 h) and 0.14 µM with EpiSC-derived OPCs (Mus musculus, 72 h).

Consider `O=S1(=O)CC2(CCN([C@@H]3CO[C@@H](c4ccc(C(F)(F)F)cc4)C3)C2)C1` (stereo in doubt) [19B*, 6-((3S,5R)-5-(4-(trifluoromethyl)phenyl)tetrahydrofuran-3-yl)-2-thia-6-azaspiro[3.4]octane 2,2-dioxide], for which the inhibition constant (Ki) on human EBP came out at 0.027 µM. The concentration for a half-maximal effect (EC50) in test [1] (Mus musculus, 24 h) amounted to 0.01 µM; in the test on EpiSC-derived OPCs (Mus musculus, 72 h), 0.049 µM.

As to `O=S1(=O)CC2(CCN([C@@H]3CO[C@H](c4ccc(C(F)(F)F)cc4)C3)C2)C1` (stereo in doubt) [19C*, 6-((3S,5S)-5-(4-(Trifluoromethyl)phenyl)tetrahydrofuran-3-yl)-2-thia-6-azaspiro[3.4]octane 2,2-dioxide], the Ki on human EBP is 0.034 µM. Further, the EC50 in test [1] (Mus musculus, 24 h) turned out to be 0.11 µM; with EpiSC-derived OPCs (Mus musculus, 72 h), 0.27 µM.

As for `O=S1(=O)CC2(CCN([C@H]3CO[C@H](c4ccc(C(F)(F)F)cc4)C3)C2)C1` (stereo in doubt) [19D*, 6-((3R,5S)-5-(4-(trifluoromethyl)phenyl)tetrahydrofuran-3-yl)-2-thia-6-azaspiro[3.4]octane 2,2-dioxide], at human EBP, the inhibition constant (Ki) came to 0.032 µM. The EC50 was found to be 0.11 µM in test [1] (Mus musculus, 24 h) and 0.16 µM in the test with EpiSC-derived OPCs (Mus musculus, 72 h).

For the compound `CCn1nc(-c2ccc(C(F)(F)F)nc2)nc1[C@H]1CC[C@H](N2CCC3(C2)CS(=O)(=O)C3)CC1` [36A*, 6-((1r,4r)-4-(1-Ethyl-3-(6-(trifluoromethyl)pyridin-3-yl)-1H-1,2,4-triazol-5-yl)cyclohexyl)-2-thia-6-azaspiro[3.4]octane 2,2-dioxide], the Ki at human EBP was 0.04 µM. Also, the EC50 in test [1] (Mus musculus, 24 h) was 0.0086 µM; in the test on EpiSC-derived OPCs (Mus musculus, 72 h), 0.073 µM.

As for `CCn1nc(-c2ccc(C(F)(F)F)nc2)nc1[C@H]1CC[C@@H](N2CCC3(C2)CS(=O)(=O)C3)CC1` [36B*, 6-((1s,4s)-4-(1-ethyl-3-(6-(trifluoromethyl)pyridin-3-yl)-1H-1,2,4-triazol-5-yl)cyclohexyl)-2-thia-6-azaspiro[3.4]octane 2,2-dioxide], the Ki on human EBP stood at 0.057 µM. In addition, the EC50 in test [1] (Mus musculus, 24 h) came to 0.023 µM; in the test with EpiSC-derived OPCs (Mus musculus, 72 h), 0.072 µM.

In the case of `O=S1(=O)CC2(CCN([C@@H]3CC[C@@H](c4ccc(C(F)(F)F)cc4)C3)C2)C1` [Compound 1B, 6-((1R,3R)-3-(4-(trifluoromethyl)phenyl)cyclopentyl)-2-thia-6-azaspiro[3.4]octane 2,2-dioxide], the Ki on human EBP came to 0.1 µM. Moreover, the EC50 in test [1] (Mus musculus, 24 h) is 0.0026 µM; with EpiSC-derived OPCs (Mus musculus, 72 h) it was 0.0018 µM.

`Cn1nc(C(F)(F)F)cc1[C@H]1CC[C@@H](N2CCC3(C2)CS(=O)(=O)C3)CC1` [Compound 2A, 6-((1s,4s)-4-(1-methyl-3-(trifluoromethyl)-1H-pyrazol-5-yl)cyclohexyl)-2-thia-6-azaspiro[3.4]octane 2,2-dioxide]: the inhibitory constant (Ki) on human EBP worked out at 0.02 µM. In addition, the EC50 in test [1] (Mus musculus, 24 h) was 0.056 µM; in the test on EpiSC-derived OPCs (Mus musculus, 72 h) it was 0.24 µM.

With `Cn1nc(C(F)(F)F)cc1[C@H]1CC[C@H](N2CCC3(C2)CS(=O)(=O)C3)CC1` [Compound 2B, 6-((1r,4r)-4-(1-methyl-3-(trifluoromethyl)-1H-pyrazol-5-yl)cyclohexyl)-2-thia-6-azaspiro[3.4]octane 2,2-dioxide], on human EBP, the Ki was 0.02 µM. For the same compound, the EC50 turned out to be 0.012 µM in test [1] (Mus musculus, 24 h) and 0.048 µM in the test on EpiSC-derived OPCs (Mus musculus, 72 h).

Consider `O=S1(=O)CC2(CCN([C@H]3CC[C@H](c4ccc(C(F)(F)F)cc4)CC3)C2)C1` [Compound 3A, 6-((1r,4r)-4-(4-(trifluoromethyl)phenyl)cyclohexyl)-2-thia-6-azaspiro[3.4]octane 2,2-dioxide], for which, at human EBP, the inhibitory constant (Ki) was found to be 0.02 µM. The EC50 in test [1] (Mus musculus, 24 h) came to 0.0021 µM; with EpiSC-derived OPCs (Mus musculus, 72 h), 0.0051 µM.

Consider `O=S1(=O)CC2(CCN([C@H]3CC[C@@H](c4ccc(C(F)(F)F)cc4)CC3)C2)C1` [Compound 3B, 6-((1s,4s)-4-(4-(trifluoromethyl)phenyl)cyclohexyl)-2-thia-6-azaspiro[3.4]octane 2,2-dioxide], for which the inhibition constant (Ki) at human EBP is 0.062 µM. The concentration for a half-maximal effect (EC50) in test [1] (Mus musculus, 24 h) is 0.016 µM; in the test on EpiSC-derived OPCs (Mus musculus, 72 h), 0.03 µM.

`O=S1(=O)CC2(CCN(C3CCN(c4ccc(C(F)(F)F)cc4)CC3)C2)C1` [Compound 4, 6-(1-(4-(trifluoromethyl)phenyl)piperidin-4-yl)-2-thia-6-azaspiro[3.4]octane 2,2-dioxide]: the Ki on human EBP was determined as 0.026 µM. Further, the 50% effective concentration (EC50) in test [1] (Mus musculus, 24 h) came out at 0.0025 µM; with EpiSC-derived OPCs (Mus musculus, 72 h), 0.023 µM.

As to `O=S1(=O)CC2(CCN(C3CCN(c4ccc(C(F)(F)F)nc4)CC3)C2)C1` [Compound 5, 6-(1-(6-(trifluoromethyl)pyridin-3-yl)piperidin-4-yl)-2-thia-6-azaspiro[3.4]octane 2,2-dioxide], the Ki at human EBP came out at 0.067 µM. The EC50 in test [1] (Mus musculus, 24 h) was 0.05 µM; in the test with EpiSC-derived OPCs (Mus musculus, 72 h), 0.19 µM.

In the case of `O=S1(=O)CC2(CCN(C3CCN(c4ccc(C(F)(F)F)cn4)CC3)C2)C1` [Compound 6, 6-(1-(5-(trifluoromethyl)pyridin-2-yl)piperidin-4-yl)-2-thia-6-azaspiro[3.4]octane 2,2-dioxide], on human EBP, the Ki amounted to 0.037 µM. The EC50 in test [1] (Mus musculus, 24 h) was 0.014 µM; in the test on EpiSC-derived OPCs (Mus musculus, 72 h), 0.039 µM.

With `Cc1cc(C(F)(F)F)cnc1N1CCC(N2CCC3(C2)CS(=O)(=O)C3)CC1` [Compound 7, 6-(1-(3-methyl-5-(trifluoromethyl)pyridin-2-yl)piperidin-4-yl)-2-thia-6-azaspiro[3.4]octane 2,2-dioxide], on human EBP, the Ki is 0.01 µM. The EC50 is 0.034 µM in test [1] (Mus musculus, 24 h) and 0.021 µM in the test on EpiSC-derived OPCs (Mus musculus, 72 h).

The record behind these values is US20240398781A1, “SPIROCYCLIC CYCLIC MODULATORS OF CHOLESTEROL BIOSYNTHESIS AND THEIR USE FOR PROMOTING REMYELINATION” (GENENTECH, INC., priority 2021, published 2024).
